# Measurements: US9328099B2, “Cyanomethylpyrazole carboxamides as janus kinase inhibitors” (Merck Sharp & Dohme Corp., priority 2011, dated 2016)
# Legend:
# JAK1 = JAK1 (Homo sapiens (Human), UniProt P23458); experiment: Jak Biochemical HTRF Assay, JAK1; settings: HTRF biochemical assay, GST-tagged catalytic domain; top concentration tested […]; read-out: JAK1 IC50
# From the text: (§1) Jak Biochemical HTRF Assay Protocol
# (§2) Subsequent reagent additions employed an Agilent Bravo.
# JAK2 = JAK2 (Homo sapiens (Human), UniProt O60674); experiment: Jak Biochemical HTRF Assay, JAK2; settings: HTRF biochemical assay, GST-tagged catalytic domain; top concentration tested […]
# JAK2, sequence (O60674 849-1124): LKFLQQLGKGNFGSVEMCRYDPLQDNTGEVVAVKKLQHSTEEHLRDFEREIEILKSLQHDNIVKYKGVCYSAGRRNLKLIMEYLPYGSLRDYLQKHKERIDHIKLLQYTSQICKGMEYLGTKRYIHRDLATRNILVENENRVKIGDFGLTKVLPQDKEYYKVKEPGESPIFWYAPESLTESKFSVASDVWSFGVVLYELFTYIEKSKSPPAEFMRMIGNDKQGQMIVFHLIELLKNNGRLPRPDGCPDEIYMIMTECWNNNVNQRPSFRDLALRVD
# From the text: as §1, §2
# JAK1, sequence (P23458 875-1153): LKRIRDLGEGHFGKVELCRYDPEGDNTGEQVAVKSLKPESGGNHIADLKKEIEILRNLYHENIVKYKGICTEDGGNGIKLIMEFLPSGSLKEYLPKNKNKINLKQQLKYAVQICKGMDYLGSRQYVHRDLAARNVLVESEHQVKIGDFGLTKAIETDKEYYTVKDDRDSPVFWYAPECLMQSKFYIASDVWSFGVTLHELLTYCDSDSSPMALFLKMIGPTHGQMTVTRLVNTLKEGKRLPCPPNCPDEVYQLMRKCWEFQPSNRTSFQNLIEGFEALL
IC50 (JAK1),IC50 (JAK2),Structure (SMILES)
2 nM,69 nM,"Cc1ccc(NC(=O)N2CC(CC#N)(n3cc(C(N)=O)c(Nc4ccccc4)n3)C2)cc1 [Example 38-6, 1-{3-(cyanomethyl)-1-[(4-methylphenyl)carbamoyl]azetidin-3-yl}-3-(phenylamino)-1H-pyrazole-4-carboxamide]"
5 nM,80 nM,CC(C)c1ccc(NC(=O)N2CC(CC#N)(n3cc(C(N)=O)c(Nc4ccccc4)n3)C2)cc1 [Example 38-7]
14 nM,428 nM,"CC(C)c1ccccc1NC(=O)N1CC(CC#N)(n2cc(C(N)=O)c(Nc3ccccc3)n2)C1 [Example 38-8, 1-[3-(cyanomethyl)-1-{[2-(1-methylethyl)phenyl]carbamoyl}azetidin-3-yl]-3-(phenylamino)-1H-pyrazole-4-carboxamide]"
5 nM,158 nM,"N#CCC1(n2cc(C(N)=O)c(Nc3ccccc3)n2)CN(C(=O)Nc2cc(F)ccc2F)C1 [Example 38-10, 1-{3-(cyanomethyl)-1-[(2,5-difluorophenyl)carbamoyl]azetidin-3-yl}-3-(phenylamino)-1H-pyrazole-4-carboxamide]"
4 nM,78 nM,"Cc1cccc(NC(=O)N2CC(CC#N)(n3cc(C(N)=O)c(Nc4ccccc4)n3)C2)c1 [Example 38-11, 1-{3-(cyanomethyl)-1-[(3-methylphenyl)carbamoyl]azetidin-3-yl}-3-(phenylamino)-1H-pyrazole-4-carboxamide]"
128 nM,1440 nM,"Cc1cc(C)c(NC(=O)N2CC(CC#N)(n3cc(C(N)=O)c(Nc4ccccc4)n3)C2)c(C)c1 [Example 38-12, 1-{3-(cyanomethyl)-1-[(2,4,6-trimethylphenyl)carbamoyl]azetidin-3-yl}-3-(phenylamino)-1H-pyrazole-4-carboxamide]"
21 nM,339 nM,"Cc1ccc(NC(=O)N2CC(CC#N)(n3cc(C(N)=O)c(Nc4ccccc4)n3)C2)cc1Cl [Example 38-13, 1-{1-[(3-chloro-4-methylphenyl)carbamoyl]-3-(cyanomethyl)azetidin-3-yl}-3-(phenylamino)-1H-pyrazole-4-carboxamide]"
25 nM,334 nM,"Cc1cc(Cl)ccc1NC(=O)N1CC(CC#N)(n2cc(C(N)=O)c(Nc3ccccc3)n2)C1 [Example 38-14, 1-{1-[(4-chloro-2-methylphenyl)carbamoyl]-3-(cyanomethyl)azetidin-3-yl}-3-(phenylamino)-1H-pyrazole-4-carboxamide]"
0.9 nM,21 nM,"N#CCC1(n2cc(C(N)=O)c(Nc3ccccc3)n2)CN(C(=O)Nc2ccc(C#N)cc2)C1 [Example 38-15, 1-{3-(cyanomethyl)-1-[(4-cyanophenyl)carbamoyl]azetidin-3-yl}-3-(phenylamino)-1H-pyrazole-4-carboxamide]"
7 nM,111 nM,"Cc1ccc(C)c(NC(=O)N2CC(CC#N)(n3cc(C(N)=O)c(Nc4ccccc4)n3)C2)c1 [Example 38-16, 1-{3-(cyanomethyl)-1-[(2,5-dimethylphenyl)carbamoyl]azetidin-3-yl}-3-(phenylamino)-1H-pyrazole-4-carboxamide]"
11 nM,149 nM,"Cc1ccc(Cl)cc1NC(=O)N1CC(CC#N)(n2cc(C(N)=O)c(Nc3ccccc3)n2)C1 [Example 38-17, 1-{1-[(5-chloro-2-methylphenyl)carbamoyl]-3-(cyanomethyl)azetidin-3-yl}-3-(phenylamino)-1H-pyrazole-4-carboxamide]"
7 nM,106 nM,"CCCNC(=O)N1CC(CC#N)(n2cc(C(N)=O)c(Nc3ccccc3)n2)C1 [Example 38-18, 1-[3-(cyanomethyl)-1-(propylcarbamoyl)azetidin-3-yl]-3-(phenylamino)-1H-pyrazole-4-carboxamide]"
23 nM,334 nM,"Cc1ccc(NC(=O)N2CC(CC#N)(n3cc(C(N)=O)c(Nc4ccccc4)n3)C2)c(C)c1 [Example 38-19, 1-{3-(cyanomethyl)-1-[(2,4-dimethylphenyl)carbamoyl]azetidin-3-yl}-3-(phenylamino)-1H-pyrazole-4-carboxamide]"
19 nM,326 nM,"Cc1cc(C)cc(NC(=O)N2CC(CC#N)(n3cc(C(N)=O)c(Nc4ccccc4)n3)C2)c1 [Example 38-20, 1-{3-(cyanomethyl)-1-[(3,5-dimethylphenyl)carbamoyl]azetidin-3-yl}-3-(phenylamino)-1H-pyrazole-4-carboxamide]"
7 nM,173 nM,"N#CCC1(n2cc(C(N)=O)c(Nc3ccccc3)n2)CN(C(=O)Nc2ccc(F)c(F)c2)C1 [Example 38-21, 1-{3-(cyanomethyl)-1-[(3,4-difluorophenyl)carbamoyl]azetidin-3-yl}-3-(phenylamino)-1H-pyrazole-4-carboxamide]"
19 nM,249 nM,"Cc1c(Cl)cccc1NC(=O)N1CC(CC#N)(n2cc(C(N)=O)c(Nc3ccccc3)n2)C1 [Example 38-22, 1-{1-[(3-chloro-2-methylphenyl)carbamoyl]-3-(cyanomethyl)azetidin-3-yl}-3-(phenylamino)-1H-pyrazole-4-carboxamide]"
94 nM,1190 nM,"CCc1cccc(C)c1NC(=O)N1CC(CC#N)(n2cc(C(N)=O)c(Nc3ccccc3)n2)C1 [Example 38-23, 1-{3-(cyanomethyl)-1-[(2-ethyl-6-methylphenyl)carbamoyl]azetidin-3-yl}-3-(phenylamino)-1H-pyrazole-4-carboxamide]"
5 nM,179 nM,"Cc1cccc(Cl)c1NC(=O)N1CC(CC#N)(n2cc(C(N)=O)c(Nc3ccccc3)n2)C1 [Example 38-24, 1-{1-[(2-chloro-6-methylphenyl)carbamoyl]-3-(cyanomethyl)azetidin-3-yl}-3-(phenylamino)-1H-pyrazole-4-carboxamide]"
18 nM,168 nM,"COc1ccc(C)cc1NC(=O)N1CC(CC#N)(n2cc(C(N)=O)c(Nc3ccccc3)n2)C1 [Example 38-25, 1-{3-(cyanomethyl)-1-[(2-methoxy-5-methylphenyl)carbamoyl]azetidin-3-yl}-3-(phenylamino)-1H-pyrazole-4-carboxamide]"
2 nM,69 nM,"CCOc1ccc(NC(=O)N2CC(CC#N)(n3cc(C(N)=O)c(Nc4ccccc4)n3)C2)cc1 [Example 38-26, 1-{3-(cyanomethyl)-1-[(4-ethoxyphenyl)carbamoyl]azetidin-3-yl}-3-(phenylamino)-1H-pyrazole-4-carboxamide]"
11 nM,162 nM,"Cc1ccccc1NC(=O)N1CC(CC#N)(n2cc(C(N)=O)c(Nc3ccccc3)n2)C1 [Example 38-27, 1-{3-(cyanomethyl)-1-[(2-methylphenyl)carbamoyl]azetidin-3-yl}-3-(phenylamino)-1H-pyrazole-4-carboxamide]"
6 nM,79 nM,"N#CCC1(n2cc(C(N)=O)c(Nc3ccccc3)n2)CN(C(=O)Nc2ccc(F)cc2F)C1 [Example 38-28, 1-{3-(cyanomethyl)-1-[(2,4-difluorophenyl)carbamoyl]azetidin-3-yl}-3-(phenylamino)-1H-pyrazole-4-carboxamide]"
185 nM,1480 nM,"CC(C)(C)CC(C)(C)NC(=O)N1CC(CC#N)(n2cc(C(N)=O)c(Nc3ccccc3)n2)C1 [Example 38-29, 1-{3-(cyanomethyl)-1-[(1,1,3,3-tetramethylbutyl)carbamoyl]azetidin-3-yl}-3-(phenylamino)-1H-pyrazole-4-carboxamide]"
